{
  "source": "paper PMC6550521",
  "about": "“Stress-Induced Changes in the Lipid Microenvironment of β-(1,3)-D-Glucan Synthase Cause Clinically Important Echinocandin Resistance in Aspergillus fumigatus” (mBio, 2019)",
  "key": {"[1]": {"system": "Aspergillus fumigatus clinical isolate 117", "assay": "Antifungal susceptibility testing (MEC, CLSI M38-A2)", "assay_type": "cell-based", "details": "clinical isolate 117, fks1 WT", "procedure": "(§1) Minimum effective concentrations (MECs) for A. fumigatus strains were determined according to CLSI document M38-A2 ([48]) and defined as the lowest drug concentration that led to the growth of small, rounded, compact hyphal forms compared to the hyphal growth seen in the drug-free growth control wells. The following drugs (supplier) were tested: caspofungin (Merck & Co., Inc.), micafungin (Astellas Pharma US, Inc.), anidulafungin (Pfizer Inc.), itraconazole (Sigma-Aldrich), voriconazole (Pfizer Inc.), and amphotericin B (Sigma-Aldrich). In addition, rezafungin and ibrexafungerp were obtained from Cidara Therapeutics and Scynexis Inc., respectively."}, "[2]": {"system": "Aspergillus fumigatus clinical isolate 2770", "assay": "Antifungal susceptibility testing (MEC, CLSI M38-A2)", "assay_type": "cell-based", "details": "clinical isolate 2770, fks1 WT", "procedure": "as §1"}, "[3]": {"system": "Aspergillus fumigatus clinical isolate 32315", "assay": "Antifungal susceptibility testing (MEC, CLSI M38-A2)", "assay_type": "cell-based", "details": "clinical isolate 32315, fks1 WT", "procedure": "as §1"}, "[4]": {"system": "Aspergillus fumigatus clinical isolate 32458", "assay": "Antifungal susceptibility testing (MEC, CLSI M38-A2)", "assay_type": "cell-based", "details": "clinical isolate 32458, fks1 WT", "procedure": "as §1"}, "[5]": {"system": "Aspergillus fumigatus clinical isolate 68284B", "assay": "Antifungal susceptibility testing (MEC, CLSI M38-A2)", "assay_type": "cell-based", "details": "fks1 WT", "procedure": "as §1"}, "A. fumigatus RG101 [6]": {"system": "A. fumigatus RG101", "assay_type": "cell-based, Aspergillus fumigatus", "procedure": "The following drugs (supplier) were tested: caspofungin (Merck & Co., Inc.), micafungin (Astellas Pharma US, Inc.), anidulafungin (Pfizer Inc.), itraconazole (Sigma-Aldrich), voriconazole (Pfizer Inc.), and amphotericin B (Sigma-Aldrich). In addition, rezafungin and ibrexafungerp were obtained from Cidara Therapeutics and Scynexis Inc., respectively."}, "[7]": {"system": "reactive oxygen species (ROS) in A. fumigatus ATCC 13073", "assay": "ROS production, DCFDA fluorescence assay", "assay_type": "cell-based, Aspergillus fumigatus", "details": "1 μg/ml, 1 h exposure, compared with other echinocandins", "procedure": "(§2) ROS production in mycelia was measured using a protocol previously described by Blatzer et al. ([51]) with a few changes. Suspensions of 10^4 spores/ml of ATCC 13073 and RG101 were grown in static culture in complete supplement mixture (CSM) medium for 16 h in a 96-well microplate at 37°C. After incubation, the mycelia were washed once with CSM, 10 μM 2′,7′–dichlorofluorescin diacetate (DCFDA) dye was added, and cells were incubated in the dark at 37°C for 30 min. Cells were then washed three times with phosphate-buffered saline (PBS), and a final concentration of 1 μg/ml of each echinocandin in CSM medium was added to different wells. Fluorescence intensity (excitation at 485 nm and emission at 530 nm) was measured for 1 h in a microplate reader (Tecan Infinite M200 Pro). Mycelia stained with DCFDA without any drug were used as a control."}, "[8]": {"system": "reactive oxygen species (ROS) in A. fumigatus RG101", "assay": "ROS production, DCFDA fluorescence assay", "assay_type": "cell-based, Aspergillus fumigatus", "details": "1 μg/ml, 1 h exposure, DCFDA, compared with other echinocandins", "procedure": "as §2"}, "A. fumigatus ATCC 13073": {"system": "A. fumigatus ATCC 13073", "assay": "Electron microscopy (SEM, TEM) of cell wall ultrastructure", "assay_type": "cell-based, Aspergillus fumigatus", "details": "CAS 4 μg/ml, 16 h, SEM and TEM", "procedure": "(§3) Scanning electron microscopy (SEM) and transmission electron microscopy (TEM) methods were followed as described previously ([49]) and in Text S1.\n(§4) For SEM, mycelia of ATCC 13073 and RG101 were grown in the absence and presence of CAS (4 µg/mL) and were fixed with 2.5% (v/v) glutaraldehyde in 0.1 M cacodylate buffer (pH 7.4) at room temperature for 3 h. After being washed with 0.1 M cacodylate buffer, specimens were post-fixed for 1 h with 1% osmium tetroxide in 0.1 M cacodylate buffer (pH 7.4) at 4 °C. Samples were dehydrated in graded ethanol, and then critical point dried in liquid carbon dioxide and sputter-coated with a thin layer of palladium–gold. Observations were carried out using Hitachi S-3400 N scanning electron microscope.\n(§5) For TEM, cultures were fixed with 2.5% (v/v) glutaraldehyde solution as described above. They were then post-fixed for 1 h with 1% (w/v) osmium tetroxide in 0.1 M cacodylate buffer (pH 7.4) at 4 °C. After three wash steps in buffer, specimens were dehydrated in a series of graded ethanol and embedded in Embed 812. Thin sections were stained with uranyl acetate followed by lead nitrate and examined in a Hitachi H-7500 electron microscope operated at 100 KV."}, "A. fumigatus RG101 [9]": {"system": "A. fumigatus RG101", "assay": "Electron microscopy (SEM, TEM) of cell wall ultrastructure", "assay_type": "cell-based, Aspergillus fumigatus", "details": "CAS 4 μg/ml, 16 h, SEM and TEM", "procedure": "as §3, §4, §5"}, "[10]": {"system": "cell wall glucan and chitin of RG101", "assay": "Cell wall carbohydrate analysis (mass spectrometry, calcofluor white)", "assay_type": "cell-based, Aspergillus fumigatus", "details": "CAS 4 μg/ml", "procedure": "Strains ATCC 13073 and RG101 were grown in the absence and presence of CAS (4 μg/ml) in 6-well microtiter plates containing yeast extract-peptone-dextrose (YPD) broth for 22 h at 37°C. The cells were then lysed using a French press. The broken cell wall sample was processed for chemical analysis using mass spectrometry at the Complex Carbohydrate Research Center (CCRC) at the University of Georgia, Athens, GA."}},
  "data": [
    {"smiles": "CC[C@H](C)C[C@H](C)CCCCCCCCC(=O)N[C@H]1C[C@@H](O)[C@@H](NCCN)NC(=O)[C@@H]2[C@@H](O)CCN2C(=O)[C@H]([C@H](O)CCN)NC(=O)[C@H]([C@H](O)[C@@H](O)c2ccc(O)cc2)NC(=O)[C@@H]2C[C@@H](O)CN2C(=O)[C@H]([C@@H](C)O)NC1=O", "note": "[CAS, caspofungin]", "values": [
      {"measurement": "MEC (minimum effective concentration)", "setting": "[1]", "result": 16, "unit": "µg/mL"},
      {"measurement": "MEC (minimum effective concentration)", "setting": "[2]", "result": 16, "unit": "µg/mL"},
      {"measurement": "MEC (minimum effective concentration)", "setting": "[3]", "result": 16, "unit": "µg/mL"},
      {"measurement": "MEC (minimum effective concentration)", "setting": "[4]", "result": 16, "unit": "µg/mL"},
      {"measurement": "MEC (minimum effective concentration)", "setting": "[5]", "result": 4, "unit": "µg/mL"},
      {"measurement": "Breakthrough growth concentrations, RG101", "setting": "A. fumigatus RG101 [6]; 24 h", "result": "0.5 to 8", "unit": "µg/mL"},
      {"measurement": "MEC 2 (rosettes form again), RG101", "setting": "A. fumigatus RG101 [6]; 24 h", "result": 16, "unit": "µg/mL"},
      {"measurement": "Susceptibility phenotype of RG101", "setting": "A. fumigatus RG101 [6]; 24 h", "result": "resistant"},
      {"measurement": "Growth phenotype of RG101 at 30 h", "setting": "A. fumigatus RG101 [6]; 30 h, all concentrations tested (0.25 to 8 μg/ml)", "result": "full breakthrough"},
      {"measurement": "ROS levels induced in ATCC 13073", "setting": "[7]", "result": "highest levels"},
      {"measurement": "ROS levels induced in RG101", "setting": "[8]", "result": "highest levels"},
      {"measurement": "Cell wall ultrastructure of ATCC 13073 grown in the presence of CAS", "setting": "A. fumigatus ATCC 13073", "result": "extensive damage"},
      {"measurement": "Cell wall ultrastructure of RG101 grown in the presence of CAS", "setting": "A. fumigatus RG101 [9]", "result": "did not show any ultrastructural cell wall damage"},
      {"measurement": "Chitin levels in RG101 upon CAS exposure", "setting": "[10]; MS and calcofluor white", "result": "no significant increase"},
      {"measurement": "Cell wall glucan content in RG101 treated with CAS", "setting": "[10]; mass spectroscopy", "result": "no reduction"}
    ]}
  ]
}
